According to ChEMBL document CHEMBL1158461, “The role of amphiphilicity and negative charge in glycoprotein 41 interactions in the hydrophobic pocket” (J Med Chem, 2009):

How the values were obtained:
[1] = Critical micellar concentration of the compound
[2] = Displacement of C32-Aib-fluorescein from HIV1 envelope glycoprotein gp41 Fe(env5.0)3 receptor by fluorescence assay; set-up: species or system Human immunodeficiency virus 1
[3] = Displacement of C27-Aib-lucifer yellow from HIV1 envelope glycoprotein gp41 Fe(env3.0)3 receptor by fluorescence assay; set-up: species or system Human immunodeficiency virus 1

| Compound | CMC [1] | other results |
| --- | --- | --- |
| CCCCCCCCCCS(=O)(=O)[O-].[Na+] | 25000 µM | – |
| CCCCCCCCS(=O)(=O)[O-].[Na+] | > 250000 µM | – |
| CCCCCCCCCCCCCCCCS(=O)(=O)[O-].[Na+] | <= 100 uM | – |
| CCCCCCCCCCCCCCS(=O)(=O)[O-].[Na+] | 600 µM | – |
| CC[C@H](C)[C@H](NC(=O)[C@H](C)NC(=O)[C@H](CCCNC(=N)N)NC(=O)[C@H](CC(=O)O)NC(=O)[C@H](Cc1c[nH]c2ccccc12)NC(=O)[C@H](C)NC(=O)[C@H](CCC(=O)O)NC(=O)[C@H](Cc1c[nH]c2ccccc12)NC(=O)[C@@H](NC(=O)[C@@H](NC(C)=O)[C@H](C)O)[C@H](C)O)C(=O)N[C@@H](C)C(=O)N[C@@H](CCC(=O)O)C(=O)N[C@@H](Cc1ccc(O)cc1)C(=O)N[C@@H](C)C(=O)N[C@@H](C)C(=O)N[C@@H](CCCNC(=N)N)C(=O)N[C@H](C(=O)N[C@@H](CCC(=O)O)C(=O)N[C@@H](C)C(=O)N[C@@H](CC(C)C)C(=O)N[C@H](C(=O)N[C@@H](CCCNC(=N)N)C(=O)N[C@@H](C)C(=O)N[C@@H](C)C(=O)N[C@@H](CCC(N)=O)C(=O)N[C@@H](CCC(=O)O)C(=O)N[C@@H](CCC(N)=O)C(=O)N[C@@H](CCC(N)=O)C(=O)N[C@@H](CCC(=O)O)C(=O)N[C@@H](CCCCN)C(=O)N[C@@H](CC(N)=O)C(=O)N[C@@H](CS)C(N)=O)[C@@H](C)CC)[C@@H](C)CC | – | Ki [2]: 7 nM |
| CCCCCCCCCCCCS(=O)(=O)[O-].[Na+] | 5000 µM | – |
| CC[C@@H](C)[C@H](NC(=O)[C@H](CCC(=O)O)NC(=O)[C@H](CCCNC(=N)N)NC(=O)[C@H](CC(=O)O)NC(=O)[C@H](Cc1c[nH]c2ccccc12)NC(=O)[C@H](CCC(=O)O)NC(=O)C(C)(C)NC(=O)[C@H](Cc1c[nH]c2ccccc12)NC(=O)[C@@H](NC(=O)[C@@H](NC(=O)[C@H](Cc1cnc[nH]1)NC(=O)[C@H](CC(N)=O)NC(=O)[C@H](Cc1c[nH]c2ccccc12)NC(=O)C(C)(C)NC(=O)[C@H](CCC(N)=O)NC(=O)[C@H](CCC(=O)O)NC(=O)[C@H](CC(C)C)NC(=O)[C@H](CO)NC(=O)[C@H](CCCCN)NC(C)=O)[C@@H](C)O)[C@@H](C)O)C(=O)NC(C)(C)C(=O)N[C@@H](CC(N)=O)C(=O)N[C@@H](Cc1ccc(O)cc1)C(=O)N[C@H](C(=O)N[C@@H](CO)C(=O)N[C@@H](CC(C)C)C(=O)N[C@H](C(=O)N[C@@H](CS)C(N)=O)[C@@H](C)CC)[C@@H](C)O | – | Ki [3]: 1200 nM |
| CCCCCCCC(=O)[O-].[Na+] [SODIUM CAPRYLATE] | 200000 µM | – |
| CCCCCCCCCCOS(=O)(=O)[O-].[Na+] [SODIUM DECYL SULFATE] | 15000 µM | – |
| CCCCCCCCCCCC(=O)[O-].[Na+] [SODIUM DODECANOATE] | 2500 µM | – |
| CCCCCCCCCCCCOS(=O)(=O)[O-].[Na+] [SODIUM LAURYL SULFATE] | 2000 µM | – |
| CCCCCCCCCCCCCCCCCCOS(=O)(=O)[O-].[Na+] [SODIUM OCTADECYL SULFATE] | < 100 µM | – |
| CCCCCCCCOS(=O)(=O)[O-].[Na+] [SODIUM OCTYL SULFATE] | 30000 µM | – |
| CCCCC(CC)CCC(CC(C)C)OS(=O)(=O)[O-].[Na+] (stereo not given) [SODIUM TETRADECYL SULFATE] | 150 µM | – |
| CCCCCCCCCCCCCOS(=O)(=O)[O-].[Na+] [SODIUM TRIDECYL SULFATE] | 600 µM | – |
